Reference: ChEMBL document CHEMBL5712891, “Inhibition of BET bromodomain-dependent XIAP and FLIP expression sensitizes KRAS-mutated NSCLC to pro-apoptotic agents” (Cell Death Dis, 2016)
Activity calls are given as the source filed them. No cut-off for these calls is given here.

Key:
NCI-H460 [1] = assay: Induction of apoptosis in human NCI-H460 cells assessed as necrotic cells at 0.5 uM for 24 hrs by annexin V-PI staining based flow cytometric analysis (reference value: 3.2%); format: functional
NCI-H460 [2] = assay: Induction of apoptosis in human NCI-H460 cells assessed as early apoptotic cells at 0.5 uM for 24 hrs by annexin V-PI staining based flow cytometric analysis (reference value: 0.3%); format: functional
DV-90 [3] = assay: Induction of cell cycle arrest in human DV-90 cells assessed as accumulation of cells at G2/M phase at 0.25 uM for 24 hrs by Click-iT EdU Alexa Fluor 647 flow cytometric assay kit analysis (reference value: 21%); format: functional
NCI-H460 [4] = assay: Induction of cell cycle arrest in human NCI-H460 cells assessed as accumulation of cells at S phase at 1 uM for 24 hrs by Click-iT EdU Alexa Fluor 647 flow cytometric assay kit analysis (reference value: 54%); format: functional
NCI-H460 [5] = assay: Induction of cell cycle arrest in human NCI-H460 cells assessed as accumulation of cells at G0/G1 phase at 0.1 uM for 24 hrs by Click-iT EdU Alexa Fluor 647 flow cytometric assay kit analysis (reference value: 45%); format: functional
NCI-H358 [6] = assay: Downregulation of FLIP mRNA expression level in human NCI-H358 cells at 0.1 to 1 uM for 24 hrs by qRT-PCR analysis; format: functional, cell-based; settings: dose 0.1-1 µM
DV-90 [7] = assay: Induction of cell cycle arrest in human DV-90 cells assessed as accumulation of cells at G0/G1 phase at 0.5 uM for 24 hrs by Click-iT EdU Alexa Fluor 647 flow cytometric assay kit analysis (reference value: 44%); format: functional
A549 [8] = assay: Induction of cell cycle arrest in human A549 cells assessed as accumulation of cells at S phase at 0.1 uM for 24 hrs by Click-iT EdU Alexa Fluor 647 flow cytometric assay kit analysis (reference value: 35%); format: functional
NCI-H1373 = assay: Induction of TRAIL dependent apoptosis in human NCI-H1373 cells assessed as early apoptotic cells at 1 uM in presence of […] by annexin V-PI staining based flow cytometric analysis (reference value: 0.5%); format: functional
A549 [9] = assay: Antitumor activity against human A549 cells assessed as test to control tumor ratio at 80 mg/kg, ip for 28 days relative to control; format: functional; settings: time 28 day
A549 [10] = assay: Induction of TRAIL dependent apoptosis in human A549 cells by annexin V-PI staining based flow cytometric analysis; format: functional, cell-based
NCI-H441 = assay: Downregulation of XIAP protein expression level in human NCI-H441 cells at 1 uM for 24 hrs by […] analysis; format: functional, cell-based
DV-90 [11] = assay: Induction of apoptosis in human DV-90 cells assessed as late apoptotic cells at 2.5 uM for 24 hrs by annexin V-PI staining based flow cytometric analysis (reference value: 11.4%); format: functional
NCI-H1792 [12] = assay: Downregulation of c-MYC mRNA expression level in human NCI-H1792 cells at 0.1 to 1 uM for 24 hrs by qRT-PCR analysis; format: functional, cell-based; settings: dose 0.1-1 µM
NCI-H2030 = assay: Downregulation of c-MYC mRNA expression level in human NCI-H2030 cells at 0.1 to 1 uM for 24 hrs by qRT-PCR analysis; format: functional, cell-based; settings: dose 0.1-1 µM
NCI-H358 [13] = assay: Downregulation of XIAP mRNA expression level in human NCI-H358 cells at 0.1 to 1 uM for 24 hrs by qRT-PCR analysis; format: functional, cell-based; settings: dose 0.1-1 µM
NCI-H23 = assay: Downregulation of c-MYC protein expression level in human NCI-H23 cells at 1 uM for 24 hrs by […] analysis; format: functional, cell-based
A549 [14] = assay: Induction of apoptosis in human A549 cells assessed as early apoptotic cells at 1 uM in presence of cisplatin by annexin V-PI based flow cytometric analysis (reference value: 0.2%); format: functional
A549 [15] = assay: Downregulation of XIAP mRNA expression level in human A549 cells at 0.1 to 1 uM for 24 hrs by qRT-PCR analysis; format: functional, cell-based; settings: dose 0.1-1 µM
NCI-H1792 [16] = assay: Downregulation of FLIP mRNA expression level in human NCI-H1792 cells at 0.1 to 1 uM for 24 hrs by qRT-PCR analysis; format: functional, cell-based; settings: dose 0.1-1 µM
A549 [17] = assay: Induction of apoptosis in human A549 cells assessed as late apoptotic cells at 1 uM in presenc of cisplatin by annexin V-PI based flow cytometric analysis (reference value: 2.5%); format: functional

## Cc1sc2c(c1C)C(c1ccc(Cl)cc1)=N[C@@H](CC(=O)Nc1ccc(O)cc1)c1nnc(C)n1-2 [BIRABRESIB]
NCI-H460 [1]
  Activity: 4.7%
NCI-H460 [2]
  Activity: 0.2%
DV-90 [3]
  Activity: 26%

## CCNC(=O)C[C@@H]1N=C(c2ccc(Cl)cc2)c2cc(OC)ccc2-n2c(C)nnc21 [MOLIBRESIB]
NCI-H460 [4]
  Activity: 47%
NCI-H460 [5]
  Activity: 45%

## Cc1sc2c(c1C)C(c1ccc(Cl)cc1)=N[C@@H](CC(=O)OC(C)(C)C)c1nnc(C)n1-2
NCI-H358 [6]
  Activity: Active
DV-90 [7]
  Activity: 51%
A549 [8]
  Activity: 36%
NCI-H1373
  Activity: 6.1%
A549 [9]
  T/C: 60%
A549 [10]
  Activity: Active
NCI-H441
  Activity: Active
DV-90 [11]
  Activity: 16%
NCI-H1792 [12]
  Activity: Active
NCI-H2030
  Activity: Active
NCI-H358 [13]
  Activity: Active
NCI-H23
  Activity: Active
A549 [14]
  Activity: 2.2%
A549 [15]
  Activity: Active
NCI-H1792 [16]
  Activity: Active
A549 [17]
  Activity: 28.5%
